This note sets out measurements from ChEMBL document CHEMBL1201862, “PubChem BioAssay data set” (2004).

What all share (assay): NCI anticancer screen, dose series, 48 h
Experiment [1] concerns OVCAR-8.
Experiment [2] has as its system HCT-15.
For experiment [3], the system named is OVCAR-5.
The test system of experiment [4] is SF-539.
Experiment [5] deals with HCT-116.
Experiment [6] relates to SR.
Experiment [7] concerns SF-295.
Experiment [8] concerns SF-268.
Experiment [9] deals with ACHN.
The subject of experiment [10] is UACC-62.
In experiment [11] the test system is EKVX.
Experiment [12] concerns NCI-H23.
Experiment [13] concerns SK-MEL-2.
Experiment [14] deals with Malme-3M.
Experiment [15] relates to RXF 393.

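Five compound concentrations were applied to cells in 96-well plates for 48 hours; endpoints were derived by simple linear interpolation of the resulting dose-response curve. Abbreviation: GI50, concentration required for 50% inhibition of growth.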 Calls of active or inactive are those of the source. Rule as the data show it: active = GI50 up to about 1.1 µM and inactive = higher.

As for `COC1=C(Br)C(=O)c2nc(C)ccc2C1=O`, the GI50 was 6.73 µM (inactive) in [1]; 14.1 µM in [2]; 20.4 µM (inactive) in [3]; 21.5 µM (inactive) in experiment [4]; 8.18 µM (inactive) in experiment [5]; 3.56 µM (inactive) in experiment [6]. Besides, the GI50 is 20.4 µM (inactive) in experiment [7]; 17.5 µM (inactive) in [8]; 10.7 µM (inactive) in experiment [9]; 19 µM (inactive) in experiment [10]; 19.3 µM (inactive) in [11]; 12.7 µM (inactive) in experiment [12]. Also, the results for the GI50 in experiment [13], in experiment [14] and in [15] were 16.2 µM (inactive), 16.8 µM (inactive) and 11.2 µM (inactive), respectively.

For `Cc1ccc(C)c(NC(=O)CCc2nnc(S)[nH]2)c1`, the GI50 in [1] is > 100 µM (inactive); in experiment [2] it was 44.2 µM; in experiment [3], > 100 µM (inactive); in experiment [4], > 100 µM (inactive); in experiment [5], 69.2 µM (inactive); in experiment [6], 6.43 µM (inactive). For the same compound, the GI50 in experiment [7], in experiment [8], in experiment [9], in [10], in experiment [11] and in experiment [12] was > 100 µM (inactive) in each case. Besides, the GI50 in experiment [13], in experiment [14] and in [15] was > 100 µM (inactive) in each case.

For the compound `CCOc1cc2c[n+](C)c3c4cc(OC)c(OC)cc4ccc3c2cc1OC`, the GI50 in experiment [1] is 17.7 µM (inactive); in [2] it was more than 100 µM; in experiment [3], > 100 µM (inactive); in [4] it was > 100 µM (inactive); in experiment [5], > 100 µM (inactive); in experiment [6] it was 20.4 µM (inactive). The GI50 in experiment [7], in experiment [8], in experiment [9], in experiment [11], in experiment [12] and in [13] was > 100 µM (inactive) each time. For the same compound, the GI50 in experiment [14] and in experiment [15] was > 100 µM (inactive) throughout.

Take `COc1cc(C2C(C(=O)Nc3ccc([N+](=O)[O-])cc3)=C(C)NC(C)=C2C(=O)Nc2ccc([N+](=O)[O-])cc2)ccc1O`: the GI50 in experiment [1] is 19.9 µM (inactive); in [2] it was 19.1 µM; in [3], 35.6 µM (inactive); in experiment [4], 20.9 µM (inactive); in experiment [5], 16 µM (inactive); in experiment [6] it was 5.07 µM (inactive). The GI50 was 24.7 µM (inactive) in experiment [7]; 23.2 µM (inactive) in experiment [8]; 24.3 µM (inactive) in experiment [9]; 16.7 µM (inactive) in experiment [10]; 39.1 µM (inactive) in experiment [11]; 26.7 µM (inactive) in experiment [12]. The GI50 in experiment [13] is 15.9 µM (inactive); in experiment [14], 20.8 µM (inactive); in experiment [15], 19.5 µM (inactive).

In the case of `CC(C)(C)c1cc(Cc2ccc([N+](C)(C)C)cc2)c(O)c(C(C)(C)C)c1`, the GI50 is 17.4 µM (inactive) in experiment [1]; more than 100 µM in experiment [2]; 22.2 µM (inactive) in experiment [3]; 16.5 µM (inactive) in experiment [4]; 16.7 µM (inactive) in experiment [5]; 14.1 µM (inactive) in experiment [6]. The GI50 in experiment [7] was 26.3 µM (inactive); in [8], 15 µM (inactive); in experiment [9] it was > 100 µM (inactive); in experiment [10], 14.3 µM (inactive); in experiment [11], 30.2 µM (inactive); in [12] it was 17.7 µM (inactive). The GI50 in experiment [13] was 16.5 µM (inactive); in [14], 17.9 µM (inactive); in [15], 16.4 µM (inactive).
